Measurements published in PMC11795524, “Melanin-Binding-Based Discovery of Topically Instilled Carbonic Anhydrase Inhibitors for Targeted Delivery and Prolonged Action in the Eye” (Molecular Pharmaceutics, 2025).
“And” between values parts separate entries of the source, which are not always exact repeats. Equal entries are not always repeated.

Tests used:
[1] = molecular target: T1, human carbonic anhydrase II (Homo sapiens, UniProt P00918); assay: Multiparametric surface plasmon resonance (MP-SPR) interaction kinetics with immobilized hCAII; assay type: binding; conditions: MP-SPR, 25 °C, 1:1 model
T1 construct: purchased Sigma
Experimental: All MP-SPR measurements were conducted at 25 °C using carboxymethyl dextran hydrogel-coated (CMD-3DM) sensors (BioNavis) and were based on the protocol described by Rogez-Florent et al.[22]
Human carbonic anhydrase isoenzyme II (Sigma) was immobilized using a standard amine coupling procedure with the Amine Coupling Kit (BioNavis) and phosphate buffered saline (PBS) (20 mM phosphate buffer, 150 mM NaCl, pH 7.4) as the background buffer. Before immobilization, the sensor surface was cleaned with 2 M sodium chloride and 10 mM sodium hydroxide for 6 min at a flow rate of 30 μL/min. Then, a constant flow rate of 10 μL/min was maintained throughout the immobilization steps. The surface was activated for 7 min with 200 mM 1-ethyl-3-(3-(dimethylamino)propyl)-carbodiimide (EDC) and 50 mM N-hydroxysuccinimide, immediately followed by a 5 min injection of 45 μg/mL hCAII solution in 10 mM acetate buffer, pH 5.5. In the reference flow channel, no enzyme was immobilized. Residual activated groups of the dextran matrix were deactivated by a 7 min injection of 1 M ethanolamine HCl, pH 8.3.
For analyzing CAIs, 1% (v/v) DMSO in PBS, pH 7.4, was used as a running buffer. All CAIs were dissolved in 100% DMSO and stored as 50 mM stock solutions. These stock solutions were further diluted with the running buffer and analyzed using a 3-fold (3–1000 nM) dilution series. […] Each analyte was injected at a flow rate of 100 μL/min, with an association time of 2 min and a dissociation time of 10 min. […] Seven concentrations were measured for each CAI per cycle, and a “wash all” step with running buffer was performed at the end of each cycle to minimize the carry over effects. Each CAI were assayed in triplicate across three independent experiments.
The acquired data were processed using MP-SPR Navi Data Viewer software (version 6.7.0.1, BioNavis) employing the weighted centroid method for determining the SPR peak angular position. Signals from the reference flow channel were subtracted from the corresponding signals of the flow channel containing immobilized hCAII. The moment of sample injection was selected as the zero-time point, where both the time and MP-SPR response were set to zero. Processed data were globally fitted to a simple 1:1 interaction model using TraceDrawer software (version 1.9.2, Ridgeview Instruments AB, Sweden) to obtain kinetic parameters.

[2] = Ocular pharmacokinetics in pigmented rats (iris-ciliary body, 3H-A01); assay type: in vivo, rat; conditions: for bound fraction: pigmented tissue
Text: Eight albino rats (RccHan/Wist) and 18 pigmented rats (HsdOla/LH) were obtained from Envigo Laboratories B.V. (The Netherlands) and were used in pharmacokinetic experiments. Additional 13 albino and 13 pigmented rats were used in generation of the analytical standards. Young adult (3–4 months; 340–445 g) rats were used.
To conduct the pharmacokinetic study, bromo-containing CAI A15 (molecular structure presented in Table 1) was conveniently converted into [^3H]-A01 through catalytic dehalogenation in tritium gas. A15 (3.05 mg, 8.2 μmol) was dissolved in dimethylformamide (0.3 mL) and exposed to 99 mbar of tritium gas in a tritium manifold system for 1.5 h in the presence of 10% palladium on carbon (0.57 mg). Following filtration, the reaction mixture underwent double lyophilization with 1 mL ethanol to eliminate labile tritium. […] The crude material was purified via high-performance liquid chromatography, employing a Reprosil-Pur C18-HD column (250 × 10 mm, 5 μm), with a mobile phase comprising 40% acetonitrile in 50 mM ammonium hydrogen carbonate. Purified fractions were subsequently combined, subjected to solid-phase extraction, and eluted with ethanol. Radiochemical analysis indicated a purity exceeding 97%, with a molar activity of 0.29 TBq/mmol (7.9 Ci/mmol) and a total activity of 850 MBq (23 mCi). The solution of 1% A01 (10 mg/mL) was prepared similarly as in the IOP study (see Table 1) except that the solution contained also 72 μg/mL of [^3H]–A01 (specific activity 27.21 mCi/mg). The solution was prepared freshly for each experiment.
Seven μL of A01 solution (10 mg/mL including 72 μg/mL of ^3H–A01) was topically applied to both eyes of albino and pigmented rats. Rats were euthanized with carbon dioxide and cervical dislocation. The eyes (n = 4) of albino rats were collected 0.5, 2, 4, and 7 h after treatment. The eyes of pigmented rats were dissected 0.5, 2, 4, 7, 24, 48, 72, 144, and 240 h after eye drop instillation. The eyes were enucleated and dissected immediately after euthanasia. Iris-ciliary body was dissected, snap frozen on dry ice, and stored at −80 °C until analysis. The analyses were conducted within 24 h from tissue dissection.
Bound and unbound radioactivity of tritiated A01 was determined from dissected iris-ciliary body samples. First, the tissues were mechanically homogenized and diluted with 0.9% sodium chloride (weight ratio 35:1). Then, cellular unbound A01 was released from the iris-ciliary body cells by freezing and thawing the solutions three times with dry ice and a water bath (37 °C). Thereafter, the supernatant and pellet were separated by centrifuging the samples for 10 min at 13,000 rpm. The pellets were dissolved by using 60 min incubation in 100 μL of Solvable (PerkinElmer, Waltham, MA, USA). The samples were then bleached with 10 μL of hydrogen peroxide for 30 min. The pellet volume was calculated as the difference between the total and supernatant volumes.
After subtracting the background radioactivity, the measured net counts per minute (cpm) were converted to disintegrations per minute (dpm) taking into account color quenching and device efficiency. Standard curves were generated for each matrix (albino and pigmented supernatants and pellets; Appendix Figure 1). Finally, unbound, bound, and total A01 concentrations (ng/mg) in the iris-ciliary body of the […] were calculated using radioactivity (nCi) per μg of instilled A01 in the eye drops. Signal to noise ratios of measured pellet and supernatant samples in liquid scintillation counting are shown in Appendix Table 3.

[3] = iris-ciliary body, single topical eye drop

ka [1]: 0.57 ± 0.33 10^6 M^–1 s^–1
kd [1]: 1.45 ± 0.15 10^–2 s^–1
Kd ([1]; read-out: KD): 36.9 ± 23.4 nM
concentration at 2 h ([2]; HsdOla/LH (pigmented), rat, topical, 7 µL of 10 mg/mL solution per eye, pigmented iris-ciliary body, 2 h after administration, read-out: bound concentration at 2 h): ~500 ng/g
concentration at 10 days ([2]; HsdOla/LH (pigmented), rat, topical, 7 µL of 10 mg/mL solution per eye, pigmented iris-ciliary body, 10 days, read-out: bound concentration C10 days): 20 ng/g
exposure ratio (AUCpigm/AUCalbino), bound A01 ([2]; iris-ciliary body): 150 and 149.8
exposure ratio (AUCpigm/AUCalbino), total A01 ([2]; iris-ciliary body): 18
exposure ratio (AUCpigm/AUCalbino), unbound A01 ([2]; iris-ciliary body): 9.3
AUC0-last in pigmented tissue, bound A01 [2, 3]: 12.73 (ng/mg) × h
AUC0-last in pigmented tissue, total A01 [2, 3]: 24.72 (ng/mg) × h
AUC0-last in pigmented tissue, unbound A01 [2, 3]: 11.98 (ng/mg) × h
tmax (bound drug) ([2]; pigmented eyes): 24 h
tmax(total drug) ([2]; pigmented eyes): 24 h
Cmax, total concentration ([2]; pigmented iris-ciliary body, at 24 h): 0.36 ng/mg
time over which slow elimination continued ([2]; pigmented iris-ciliary body, total drug): ≥ 10 days
time over which unbound levels were extended ([2]; pigmented iris-ciliary body, below quantitation limit at 6 days): at least 3 days
unbound concentrations ([2]; pigmented rat iris-ciliary body): 10 to 800 nM
bound fraction ([2]; for 72 h): 37–62%
bound fraction ([2]; later than 72 h): about 90%
SMILES: C/C(=N\Nc1ccc(S(N)(=O)=O)cc1)c1cccnc1 [A01]
